Results on 40 compounds are retold here after article PMC6522912, “Evaluation of the published kinase inhibitor set to identify multiple inhibitors of bacterial ATP-dependent mur ligases” (Journal of Enzyme Inhibition and Medicinal Chemistry, 2019).

Read-outs that look alike come from different tables or passages of the source.

The target of assay [1] is E. coli MurD (Escherichia coli, UniProt P14900). Briefly: biochemical. To be noted: for remaining activity at 100 µM: 0.25 h, Table S1, PKIS screening, read-out: RA [%] at 100 µM MurD. Summed up:
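Orthophosphate released by E. coli MurD quantified by malachite green (Biomol green) absorbance at 650 nm after 15 min at 37 °C. Residual activity relative to DMSO-only controls.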

Assay [2] addresses E. coli MurC (Escherichia coli, UniProt P17952). Nature of the assay: Malachite green inhibition assay, MurC. It is filed as biochemical. To be noted: for remaining activity at 100 µM: 0.25 h; for RA (%) MurC: Table S3, aza stilbene compounds.
Assay [3] concerns the target E. coli MurF (Escherichia coli, UniProt P11880). Briefly: biochemical. To be noted: for remaining activity at 100 µM: 0.25 h, read-out: RA [%] at 100 µM MurF; for remaining activity at 100 µM / RA [%] at 100 µM MurF: Table S1, PKIS screening; for RA (%) MurF: Table S3, aza stilbene compounds.
Setting [4] is: Table S1, PKIS screening, read-out: RA [%] at 100 µM MurC.

E. coli MurD, sequence (P14900 whole entry): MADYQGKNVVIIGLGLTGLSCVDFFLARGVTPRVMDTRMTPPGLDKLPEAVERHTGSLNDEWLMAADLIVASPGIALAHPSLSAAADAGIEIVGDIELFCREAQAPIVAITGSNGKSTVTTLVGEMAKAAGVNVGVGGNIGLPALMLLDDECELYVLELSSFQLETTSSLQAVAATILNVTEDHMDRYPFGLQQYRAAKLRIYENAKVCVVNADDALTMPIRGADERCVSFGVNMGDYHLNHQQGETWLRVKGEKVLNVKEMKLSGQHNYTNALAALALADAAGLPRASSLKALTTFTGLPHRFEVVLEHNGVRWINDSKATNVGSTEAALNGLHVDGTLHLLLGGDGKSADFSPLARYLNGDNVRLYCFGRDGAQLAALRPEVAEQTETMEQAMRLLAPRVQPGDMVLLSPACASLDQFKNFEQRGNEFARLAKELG
E. coli MurC, sequence (P17952 whole entry): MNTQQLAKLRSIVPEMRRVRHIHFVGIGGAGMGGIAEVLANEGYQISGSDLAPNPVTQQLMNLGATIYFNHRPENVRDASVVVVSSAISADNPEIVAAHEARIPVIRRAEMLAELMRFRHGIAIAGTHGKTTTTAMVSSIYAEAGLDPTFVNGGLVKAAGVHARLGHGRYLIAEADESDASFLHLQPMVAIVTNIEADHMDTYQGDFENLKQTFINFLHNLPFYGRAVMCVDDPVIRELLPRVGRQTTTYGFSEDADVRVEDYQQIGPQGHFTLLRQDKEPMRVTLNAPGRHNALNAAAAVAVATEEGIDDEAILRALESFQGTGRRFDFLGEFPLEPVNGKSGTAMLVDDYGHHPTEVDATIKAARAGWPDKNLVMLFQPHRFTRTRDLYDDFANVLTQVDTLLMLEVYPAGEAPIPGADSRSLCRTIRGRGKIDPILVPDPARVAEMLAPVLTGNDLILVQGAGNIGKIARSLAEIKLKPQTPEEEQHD
E. coli MurF, sequence (P11880 whole entry): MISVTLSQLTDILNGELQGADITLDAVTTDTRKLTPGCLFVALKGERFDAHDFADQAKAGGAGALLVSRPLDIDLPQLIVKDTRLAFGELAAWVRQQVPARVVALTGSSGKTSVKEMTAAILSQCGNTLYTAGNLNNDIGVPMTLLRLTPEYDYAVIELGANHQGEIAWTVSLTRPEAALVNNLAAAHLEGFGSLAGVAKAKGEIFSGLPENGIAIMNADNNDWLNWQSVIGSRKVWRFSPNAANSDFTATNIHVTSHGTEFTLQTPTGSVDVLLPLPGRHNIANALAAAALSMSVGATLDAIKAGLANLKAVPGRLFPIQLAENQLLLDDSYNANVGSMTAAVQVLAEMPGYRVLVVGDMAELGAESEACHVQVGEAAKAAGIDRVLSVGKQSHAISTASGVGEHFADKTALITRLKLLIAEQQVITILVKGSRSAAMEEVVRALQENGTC

Consider `Nc1nc(-c2ccccn2)c(-c2ccc3ncccc3n2)s1` [GW693481X], for which the remaining activity at 100 µM amounted to 88% in assay [1], 99% in assay [2] (setting [4]) and 94% in assay [3].
The matching figures for `CCN(CC)Cc1ccc(Nc2nccc(-c3cnn4ncccc34)n2)cc1` [GW780056X]: 78%, 78% and 88%.
Taken in the same sequence, the figures for `COc1ccc(Nc2ncc(-c3ccccc3)o2)cc1OC` [GW575533A] were 93%, 79% and 71%.
In the case of `COc1c(C(N)=O)cc(-c2ccc(Cl)cc2)cc1-c1ccc(S(N)(=O)=O)cc1` [GSK711701A], the remaining activity at 100 µM in assay [1] came to 99%; in assay [2] (setting [4]), 100%; in assay [3], 93%.
Take `CCN(CC)S(=O)(=O)c1ccc(OC)c(Nc2ncc(-c3ccccc3)o2)c1` [GW572401X]: the remaining activity at 100 µM in assay [1] is 60%; in assay [2] (setting [4]) it was 63%; in assay [3], 82%.
Taken in the same sequence, the figures for `COc1cc(Nc2nccc(Nc3ccc4c(C)n[nH]c4c3)n2)cc(OC)c1OC` [GW612286X] were 94%, 86% and 100%.
On to `Nc1nccc(-c2c(-c3ccc(F)cc3)ncn2C2CCNCC2)n1` [SB-220025-R#3], for which the “RA [%] at 100 µM MurD” value in assay [1] is 87. Further, the “RA [%] at 100 µM MurC” value in assay [2] (Table S1, PKIS screening) is reported as 81%. Also, in assay [3], the “RA [%] at 100 µM MurF” value is 100%.
With `NS(=O)(=O)c1ccc(NN=C2C(=O)Nc3cccc(CCc4ccncc4)c32)cc1` [GW352430A], the results for the remaining activity at 100 µM in assay [1], in assay [2] (setting [4]) and in assay [3] were 90%, 64% and 37%, respectively.
For `CN(C)CCNC(=O)Nc1ccc(N(C)c2ccnc(Nc3ccc(CS(C)(=O)=O)cc3)n2)cc1` [GW830900A], the remaining activity at 100 µM in assay [1] is 91%; in assay [2] (setting [4]), 74%; in assay [3], 75%.
The matching figures for `COc1cccc(-n2nc(C)c3c(N/N=C(\C)c4ccncc4)ncnc32)c1` [GW809885X]: 74%, 76% and 100%.
For `Cc1cc(Cl)cc2c1NC(=O)C2=NNc1ccc(S(N)(=O)=O)cc1` [GW279320X], the remaining activity at 100 µM was 78% in assay [1], 76% in assay [2] (setting [4]) and 0% in assay [3].
Regarding `Cc1ccc(Nc2ccnc(Nc3cccc(C(N)=O)c3)n2)cc1O` [GW575808A], the remaining activity at 100 µM was determined as 89% in assay [1], 100% in assay [2] (setting [4]) and 100% in assay [3].
In the case of `CCNC(=O)O[C@H]1CN[C@H](C#Cc2cc3ncnc(Nc4ccc(OCc5cccc(F)c5)c(Cl)c4)c3s2)C1` [GSK192082A], the figures for the remaining activity at 100 µM in assay [1], in assay [2] (setting [4]) and in assay [3] were 70%, 39% and 50%, respectively.
For the compound `NS(=O)(=O)c1ccc(N/N=C2\C(=O)Nc3ccc(C(=O)NCCc4c[nH]cn4)cc32)cc1` [GW300660X], the remaining activity at 100 µM in assay [1] was found to be 90%; in assay [2] (setting [4]), 58%; in assay [3], 96%.
Taken in the same sequence, the figures for `N#Cc1ccc2c(-c3ccnc(NC4CC4)n3)c(-c3ccc(F)cc3)nn2c1` [GW561436X] were 76%, 87% and 77%.
As to `COc1ccc2ncn(-c3cc(O[C@H](C)c4ccccc4C(F)(F)F)c(C(N)=O)s3)c2c1` [GSK317315A], the figures for the remaining activity at 100 µM in assay [1], in assay [2] (setting [4]) and in assay [3] were 47%, 53% and 51%, respectively.
Regarding `COC(=O)Nc1nc2ccc(S(=O)(=O)c3ccc(NC(=O)Nc4cc(C(F)(F)F)ccc4F)cc3)cc2[nH]1` [GW680908A], the remaining activity at 100 µM in assay [1] was determined as 69%; in assay [2] (setting [4]), 77%; in assay [3], 97%.
Taken in the same sequence, the figures for `O=C1Nc2ccc(C(=O)c3ccco3)cc2C1=Cc1cc(Cl)c(O)c(Cl)c1` [GW406108X] were 85%, 74% and 79%.
In the case of `O=C1Nc2ccccc2/C1=C/Nc1ccc(-n2cncn2)cc1` [GW301789X], the remaining activity at 100 µM in assay [1] worked out at 91%; in assay [2] (setting [4]), 64%; in assay [3], 75%.
The matching figures for `COc1cc2ncnc(Nc3ccc4c(cnn4Cc4ccccc4)c3)c2cc1OC` [GW282449A]: 62%, 53% and 56%.
Taken in the same sequence, the figures for `CCS(=O)(=O)c1ccc(OC)c(Nc2ncc(-c3cccc(F)c3)o2)c1` [GW621970X] were 55%, 76% and 89%.
On to `CNC(=O)c1cncc(C=Cc2c(Cl)cccc2Cl)c1` [Compound 10], for which, in assay [1], the “RA (%) MurD” value was 80%. For the same compound, the “RA (%) MurC” value in assay [2] turned out to be 81%. Besides, the “RA (%) MurF” value in assay [3] is on record as 77%.
As for `c1ccc(-c2n[nH]cc2-c2ccnc(-c3ccc(OCCn4ccnc4)cc3)c2)nc1` [GW711782X], the remaining activity at 100 µM was 74% in assay [1], 100% in assay [2] (setting [4]) and 93% in assay [3].
As to `COc1cc(N2CCN(C(C)C)CC2)ccc1Nc1nc(Nc2ccc(F)cc2C(=O)NC[C@@H](O)CO)c2cc[nH]c2n1` [GSK1392956A], the results for the remaining activity at 100 µM in assay [1], in assay [2] (setting [4]) and in assay [3] were 76%, 65% and 90%, respectively.
The matching figures for `Fc1ccc(-c2ncn(C3CCNCC3)c2-c2ccnc(Oc3ccccc3)n2)cc1` [SB-239272]: 67%, 100% and 75%.
For `Cc1cc(O)cc(C)c1C=Cc1cncc(C(N)=O)c1` [Compound 14], the “RA (%) MurD” value in assay [1] is on record as 89%. For the same compound, the “RA (%) MurC” value in assay [2] is on record as 89%. Further, the “RA (%) MurF” value in assay [3] was 75%.
In the case of `CCOc1nccc2c1nc(-c1nonc1N)n2CC` [SB-737198], the figures for the remaining activity at 100 µM in assay [1], in assay [2] (setting [4]) and in assay [3] were 100%, 73% and 100%, respectively.
`Nc1nccc(C#Cc2cncnc2Nc2ccc(OCc3cccc(F)c3)c(Cl)c2)n1` [GW799251X]: the remaining activity at 100 µM in assay [1] is 50%; in assay [2] (setting [4]), 33%; in assay [3], 0%.
Regarding `COc1ccc(-c2nn3ncccc3c2-c2ccnc(Nc3ccc4c(c3)OCCO4)n2)cc1` [GW827106X], the remaining activity at 100 µM in assay [1] amounted to 32%; in assay [2] (read-out: RA [%] at 100 µM MurC, Table S1, PKIS screening), 13%; in assay [3], 49%.
Turning to `Cl.Oc1cccc(-c2nc(-c3ccccc3)[nH]c2-c2ccncc2)c1` [SB-610251-B], the “RA [%] at 100 µM MurD” value in assay [1] is reported as 13. Besides, in assay [2] (Table S1, PKIS screening), the “RA [%] at 100 µM MurC” value is on record as 74%. Also, the “RA [%] at 100 µM MurF” value in assay [3] is reported as 96%.
As for `Cc1nnc(-c2ccc(C)c(-c3ccc(C(=O)Nc4cccc(C#N)c4)cc3)c2)o1` [GW607117X], the figures for the remaining activity at 100 µM in assay [1], in assay [2] (setting [4]) and in assay [3] were 100%, 72% and 90%, respectively.
The matching figures for `N#Cc1cccc(Nc2nccc(-c3cnn4ncccc34)n2)c1` [GW778894X]: 70%, 66% and 68%.
Taken in the same sequence, the figures for `COc1ccccc1Nc1ncc(-c2ccccc2)o1` [GW577921A] were 84%, 71% and 76%.
The matching figures for `C[C@@H](Oc1cc(-n2cnc3ccc(OC4CCN(C)CC4)cc32)sc1C(N)=O)c1ccccc1Cl` [GSK579289A]: 70%, 67% and 66%.
`Cn1cc(C=C2C(=O)Nc3cccnc32)c2ccccc21` [GW441756X]: the remaining activity at 100 µM was 99% in assay [1], 75% in assay [2] (setting [4]) and 89% in assay [3].
For `COc1cccc(COc2cc(-n3cnc4ccccc43)sc2C(N)=O)c1` [GW804482X], the remaining activity at 100 µM in assay [1] amounted to 79%; in assay [2] (setting [4]), 100%; in assay [3], 82%.
Taken in the same sequence, the figures for `COc1cc2ncn(-c3cc(OCc4cccs4)c(C(N)=O)s3)c2cc1OC` [GSK312948A] were 72%, 98% and 79%.
The matching figures for `CS(=O)(=O)CCNCc1ccc(-c2ccc3ncnc(Nc4ccc(OCc5cccc(F)c5)c(C(F)(F)F)c4)c3c2)o1` [GW576484X]: 55%, 100% and 100%.
The matching figures for `COc1cc2c(cc1Nc1nc(Nc3cccc(F)c3C(N)=O)c3cc[nH]c3n1)N(C(=O)CN1CCN(C(C)C)CC1)CC2` [GSK1751853A]: 74%, 55% and 89%.
Take `C/C(Nc1ccc(S(N)(=O)=O)cc1)=C1/C(=O)Nc2ccccc21` [GW335962X]: the remaining activity at 100 µM in assay [1] was found to be 76%; in assay [2] (setting [4]) it was 72%; in assay [3], 88%.
